Experimental data: PubChem BioAssay AID248 (DTP/NCI, 2004)
“And” between values parts separate entries of the source, which are not always exact repeats. Equal entries are not always repeated. Inconclusive results and toxic doses are left out. Rule as the data show it: active = T/C of 150% or more; inactive = T/C below 125%.

System: L1210 leukemia ip in BDF1 mice, survival T/C
Assay: NCI In Vivo Anticancer Drug Screen. Data for tumor model L1210 Leukemia (intraperitoneal) in B6D2F1 (BDF1) mice
Details: endpoint: mean survival time, higher = longer survival
How it was run: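 Each compound was tested against a transplantable tumor grown in mice. The endpoint was survival, with treated animals benchmarked against vehicle controls as a simple ratio.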

[1] = dose: 100.0 mg/kg/injection, schedule: Q01DX009 (ip), vehicle: Klucel (hydroxypropylcellulose) (HPC)
[2] = dose: 200.0 mg/kg/injection, schedule: Q01DX009 (ip), vehicle: Klucel (hydroxypropylcellulose) (HPC)
[3] = dose: 12.5 mg/kg/injection, schedule: Q04DX003 (ip), vehicle: saline
[4] = dose: 25.0 mg/kg/injection, schedule: Q04DX003 (ip), vehicle: saline
[5] = dose: 100.0 mg/kg/injection, schedule: Q01DX009 (ip), vehicle: saline
[6] = dose: 100.0 mg/kg/injection, schedule: Q04DX003 (ip), vehicle: saline
[7] = dose: 200.0 mg/kg/injection, schedule: Q01DX009 (ip), vehicle: saline
[8] = dose: 200.0 mg/kg/injection, schedule: Q04DX003 (ip), vehicle: saline
[9] = dose: 400.0 mg/kg/injection, schedule: Q04DX003 (ip), vehicle: saline
[10] = dose: 75.0 mg/kg/injection, schedule: Q01DX001 (ip), vehicle: saline
[11] = dose: 50.0 mg/kg/injection, schedule: Q01DX009 (ip), vehicle: saline with Tween-80
[12] = dose: 200.0 mg/kg/injection, schedule: Q01DX009 (ip), vehicle: saline with Tween-80

Measured: T/C

CN=C(NN)NN
inactive: dose: 2.5 mg/kg/injection, schedule: Q01DX009 (ip), vehicle: saline 106 % of control | dose: 5.0 mg/kg/injection, schedule: Q01DX009 (ip), vehicle: saline 95 % of control | dose: 5.0 mg/kg/injection, schedule: Q04DX003 (ip), vehicle: saline 95 % of control | dose: 10.0 mg/kg/injection, schedule: Q01DX001 (ip), vehicle: saline 102 % of control | dose: 10.0 mg/kg/injection, schedule: Q01DX009 (ip), vehicle: saline 97 % of control | dose: 10.0 mg/kg/injection, schedule: Q04DX003 (ip), vehicle: saline 103 % of control | dose: 20.0 mg/kg/injection, schedule: Q01DX001 (ip), vehicle: saline 103 % of control | dose: 20.0 mg/kg/injection, schedule: Q04DX003 (ip), vehicle: saline 90 % of control

COc1ccc(OC)c(NC(=O)Oc2ccc3c(C)cc(=O)oc3c2)c1
inactive: [1] 101 % of control | [2] 97 % of control | dose: 400.0 mg/kg/injection, schedule: Q01DX009 (ip), vehicle: Klucel (hydroxypropylcellulose) (HPC) 87 % of control

O=C1NC(=O)C(CO)(CO)N1
inactive: [3] 110 % of control | [4] 97 % of control | dose: 50.0 mg/kg/injection, schedule: Q04DX003 (ip), vehicle: saline 100 % of control | [5] 110 % of control | [6] 121 % of control | [7] 107 % of control | [8] 103 % of control | dose: 400.0 mg/kg/injection, schedule: Q01DX009 (ip), vehicle: saline 113 % of control | [9] 105 % of control

CC(C)(C)NC(=O)Oc1ccc2ccccc2c1
inactive: dose: 100.0 mg/kg/injection, schedule: Q01DX009 (ip), vehicle: other 96 % of control | dose: 200.0 mg/kg/injection, schedule: Q01DX009 (ip), vehicle: other 102 % of control | dose: 400.0 mg/kg/injection, schedule: Q01DX009 (ip), vehicle: other 100 % of control

NOCCCCCCON
inactive: [6] 95 % of control | [8] 97 % of control | [9] 95 % of control

CCCC(C)NCCOC(=O)c1ccc(N)cc1 (centres undefined)
inactive: [10] 95 % of control

NC(=O)N(CCc1ccccc1)N=O
inactive: dose: 6.25 mg/kg/injection, schedule: Q01DX Z (ip), vehicle: carboxymethylcellulose (CMC) 98 % of control | dose: 12.5 mg/kg/injection, schedule: Q01DX Z (ip), vehicle: carboxymethylcellulose (CMC) 109 % of control | dose: 25.0 mg/kg/injection, schedule: Q01DX Z (ip), vehicle: carboxymethylcellulose (CMC) 98 % of control | dose: 50.0 mg/kg/injection, schedule: Q01DX Z (ip), vehicle: carboxymethylcellulose (CMC) 118 % of control | dose: 75.0 mg/kg/injection, schedule: Q01DX Z (ip), vehicle: carboxymethylcellulose (CMC) 103 % of control | dose: 100.0 mg/kg/injection, schedule: Q01DX Z (ip), vehicle: carboxymethylcellulose (CMC) 114 % of control | dose: 150.0 mg/kg/injection, schedule: Q01DX Z (ip), vehicle: carboxymethylcellulose (CMC) 120 % of control | dose: 200.0 mg/kg/injection, schedule: Q01DX Z (ip), vehicle: carboxymethylcellulose (CMC) 111 % of control

BrCCN1CCCCC1
inactive: dose: 1.56 mg/kg/injection, schedule: Q01DX009 (ip), vehicle: saline 104 % of control and 115 % of control | dose: 3.13 mg/kg/injection, schedule: Q01DX009 (ip), vehicle: saline 104 % of control and 112 % of control | dose: 6.25 mg/kg/injection, schedule: Q01DX009 (ip), vehicle: saline 101 % of control and 102 % of control | dose: 12.5 mg/kg/injection, schedule: Q01DX001 (ip), vehicle: saline 108 % of control | dose: 12.5 mg/kg/injection, schedule: Q04DX002 (ip), vehicle: saline 98 % of control and 106 % of control | [3] 91 % of control | dose: 25.0 mg/kg/injection, schedule: Q01DX001 (ip), vehicle: saline 105 % of control | dose: 25.0 mg/kg/injection, schedule: Q04DX002 (ip), vehicle: saline 106 % of control | [4] 96 % of control | dose: 50.0 mg/kg/injection, schedule: Q04DX002 (ip), vehicle: saline 104 % of control

c1ccc(-c2c(-c3ccc4c(c3)OCO4)c(-c3ccc4c(c3)OCO4)c(-c3ccccc3)c3ccccc23)cc1
inactive: dose: 100.0 mg/kg/injection, schedule: Q01DX001 (ip), vehicle: saline with Tween-80 92 % of control | dose: 200.0 mg/kg/injection, schedule: Q01DX001 (ip), vehicle: saline with Tween-80 100 % of control

O=C1Oc2ccccc2C(=O)Oc2ccccc2C(=O)Oc2ccccc2C(=O)Oc2ccccc21
inactive: [10] 87 % of control

CC1(C)CCSC(/C=C/c2ccccc2)=N1
inactive: [6] 100 % of control | [8] 102 % of control | [9] 103 % of control

CSc1nc2ccc([N+](=O)[O-])cc2s1
inactive: dose: 100.0 mg/kg/injection, schedule: Q04DX002 (ip), vehicle: Klucel (hydroxypropylcellulose) (HPC) 93 % of control | dose: 200.0 mg/kg/injection, schedule: Q04DX002 (ip), vehicle: Klucel (hydroxypropylcellulose) (HPC) 97 % of control | dose: 400.0 mg/kg/injection, schedule: Q04DX002 (ip), vehicle: Klucel (hydroxypropylcellulose) (HPC) 101 % of control

CCOP(=O)(OCC)OCCCN(CC)CC
inactive: dose: 50.0 mg/kg/injection, schedule: Q01DX009 (ip), vehicle: saline 101 % of control | [5] 96 % of control and 114 % of control | [6] 101 % of control | [7] 94 % of control and 105 % of control | [8] 98 % of control

CCCOCCC(c1ccccc1)(c1ccccc1)c1ccccc1
inactive: dose: 12.5 mg/kg/injection, schedule: Q01DX009 (ip), vehicle: saline with Tween-80 98 % of control | dose: 25.0 mg/kg/injection, schedule: Q01DX009 (ip), vehicle: saline with Tween-80 98 % of control | [11] 95 % of control | [12] 87 % of control

CCOC(=O)N1CCN(C(=O)OCC)CC1
inactive: [11] 95 % of control | dose: 100.0 mg/kg/injection, schedule: Q01DX009 (ip), vehicle: saline with Tween-80 95 % of control | [12] 95 % of control

Nc1nc2ccccc2c(Cl)c1Cl
inactive: dose: 50.0 mg/kg/injection, schedule: Q01DX009 (ip), vehicle: Klucel (hydroxypropylcellulose) (HPC) 86 % of control | [1] 91 % of control | [2] 91 % of control

c1ccc(C(NC2=NCCCCCC2)c2ccco2)cc1 (centres undefined)
inactive: dose: 12.5 mg/kg/injection, schedule: Q01DX009 (ip), vehicle: Klucel (hydroxypropylcellulose) (HPC) 98 % of control | dose: 25.0 mg/kg/injection, schedule: Q01DX009 (ip), vehicle: Klucel (hydroxypropylcellulose) (HPC) 100 % of control

CNC(=O)Oc1cccc2c1C(=O)OC2=O
inactive: dose: 100.0 mg/kg/injection, schedule: Q01DX001 (ip), vehicle: other 93 % of control | dose: 100.0 mg/kg/injection, schedule: Q04DX003 (ip), vehicle: other 94 % of control | dose: 200.0 mg/kg/injection, schedule: Q01DX001 (ip), vehicle: other 90 % of control | dose: 200.0 mg/kg/injection, schedule: Q04DX003 (ip), vehicle: other 94 % of control | dose: 400.0 mg/kg/injection, schedule: Q04DX003 (ip), vehicle: other 98 % of control

CN(C)C(c1ccccc1)C(CBr)C(=O)c1ccc(Br)cc1 (centres undefined)
inactive: dose: 12.5 mg/kg/injection, schedule: Q01DX009 (ip), vehicle: saline 93 % of control | dose: 12.5 mg/kg/injection, schedule: Q04DX003 (ip), vehicle: saline with Tween-80 96 % of control | dose: 25.0 mg/kg/injection, schedule: Q01DX009 (ip), vehicle: saline 91 % of control | dose: 25.0 mg/kg/injection, schedule: Q04DX003 (ip), vehicle: saline with Tween-80 102 % of control | dose: 50.0 mg/kg/injection, schedule: Q04DX003 (ip), vehicle: saline with Tween-80 96 % of control

CC1=CCCCC1Br (centres undefined)
inactive: dose: 100.0 mg/kg/injection, schedule: Q04DX003 (ip), vehicle: saline with Tween-80 96 % of control | dose: 200.0 mg/kg/injection, schedule: Q04DX003 (ip), vehicle: saline with Tween-80 101 % of control | dose: 400.0 mg/kg/injection, schedule: Q04DX003 (ip), vehicle: saline with Tween-80 98 % of control

O=C(COc1ccc(Cl)c(Cl)c1)NCc1ccc[n+](CC(=O)Nc2ccc(S(=O)(=O)F)cc2)c1
inactive: [5] 100 % of control | [7] 94 % of control

O=C1C(Br)=CC(Br)=C/C1=N/Br
inactive: dose: 50.0 mg/kg/injection, schedule: Q04DX003 (ip), vehicle: Klucel (hydroxypropylcellulose) (HPC) 108 % of control | dose: 100.0 mg/kg/injection, schedule: Q04DX003 (ip), vehicle: Klucel (hydroxypropylcellulose) (HPC) 97 % of control | dose: 200.0 mg/kg/injection, schedule: Q04DX003 (ip), vehicle: Klucel (hydroxypropylcellulose) (HPC) 93 % of control
